According to patent US7122668B2, “Platinum complexes and their use in therapy” (priority 2002, dated 2006):

Tests used:
C-26 cells = test: Platinum complex intracellular accumulation (FAAS); format: cell-based, human; settings: C-26, 24 hr
Protocol: (§1) Cells were seeded for 48 hr before one of the complexes was added to the culture medium. After 24 hr of exposure, the complexes were removed and the cells washed twice with ice-cold PBS and pelleted. The cells (1*10^6) were dried and mineralized by heating for 10 min in 65% HNO3 (BDH, England)^(22). Samples were dissolved in de-ionized water and each sample was measured at two different dilutions by flameless Zeeman atomic absorption spectrometer (FAAS). The calibration curves included 5 standards of K2PtCl4 stock solution with concentrations ranging from 50 to 250 ng platinum per ml. Platinum content was expressed as picomoles platinum per 1*10^6 cells.
(§2) The Pt content associated with the cells was measured by Atomic Absorption Spectroscopy (AAS).

OV-1063 cells = test: Platinum complex intracellular accumulation (FAAS); format: cell-based, human; settings: OV-1063, 24 hr
Protocol: as §1, §2

calf thymus DNA = test: DNA binding (calf thymus DNA platination)
Protocol: The formation of calf thymus DNA platination was also examined. To this end, calf thymus DNA was incubated with different compounds (Table 3) in which the following parameters were determined: […]

A2780 = test: Microculture tetrazolium (MTS) cell survival assay; format: cell-based; settings: 24 hours incubation
Protocol: (§3) Cytotoxicity of the synthesized complexes was also tested by the MTS method^(21). Accordingly, the compounds were incubated for 24 hours with the corresponding cell lines and the cell survival in compound-treated cultures was evaluated.
(§4) The complexes were incubated for 24 hours with the above mentioned cell lines and the cell survival in compound-treated cultures was evaluated by the (microculture tetrazolium) MTS method as previously reported.

CH1 = test: Microculture tetrazolium (MTS) cell survival assay; format: cell-based; settings: 24 hours incubation
Protocol: as §3, §4

CH1cisR = test: Microculture tetrazolium (MTS) cell survival assay; format: cell-based
Protocol: as §3, §4

41M = test: Microculture tetrazolium (MTS) cell survival assay; format: cell-based; settings: 24 hours incubation
Protocol: as §3, §4

A2780cisR = test: Microculture tetrazolium (MTS) cell survival assay; format: cell-based
Protocol: as §3, §4

41McisR = test: Microculture tetrazolium (MTS) cell survival assay; format: cell-based
Protocol: as §3, §4

Structure (SMILES): C1CCNCC1.Cc1ccncc1.[Cl][Pt][Cl] [Complex 5, trans-[PtCl2(4-picoline)(piperidine)]]
- Penetration to cells (C-26 cells): 14974 pmol Pt/1 * 10^6 cells
- Penetration to cells (OV-1063 cells): 2092 pmol Pt/1 * 10^6 cells
- % IEC/adduct, frequency of interstrand crosslinks (calf thymus DNA): 2%
- unwinding angle per adduct (calf thymus DNA): 11°
- t1/2 half time of the binding to calf thymus DNA (calf thymus DNA; 10 mM NaClO4, 37° C., ri = 0.08, differential pulse polarography): 4.33 h
- ΔTm, 0.01M Na+ (calf thymus DNA; rb = 0.05, 0.01M Na+): +5.5 0.C
- ΔTm, 0.2 M (calf thymus DNA; rb = 0.05, 0.2 M): +0.5 0.C
- ΔΔεmax, maximum of the positive CD band at around 275 nm (calf thymus DNA; rb = 0.05, difference between control and platinated DNA): 0.04
- IC50 (A2780): 9 ± 1 µM
- IC50 (CH1): 26 ± 3 µM
- IC50 (CH1cisR; 24 hours incubation, MTS): 169 ± 9 µM
- resistance factor (IC50 resistant/IC50 sensitive) (CH1cisR; CH1cisR/CH1): (6.5)
- IC50 (41M): 35 ± 4 µM
- IC50 (A2780cisR; 24 hours incubation, MTS): 135 ± 7 µM
- resistance factor (IC50 resistant/IC50 sensitive) (A2780cisR; A2780cisR/A2780): 15
- resistance factor (IC50 resistant/IC50 sensitive) (41McisR; 41McisR/41M): 6.0
- IC50 (41McisR; 24 hours incubation, MTS): 210 µM
